Numbered stars: 1 amine (or outer) side, 2 acyl side, 3 side chain; on linkers, the order of the positions; unused ones are H or OH. Bridge positions count the residues as written; N and C are the ends. Square brackets hold non-standard residues; d marks the D form. Peptide text beside a SMILES is read from it. I, II: the chains in the order shown. Actinocin(9to1) = Cc1c2oc3c(C)ccc(C(=O)[*:1])c3nc-2c(C(=O)[*:2])c(N)c1=O; NMeV = CN[C@H](C(=O)O)C(C)C; Sar = CNCC(=O)O
Key:
[1] = system: PDE4B2; assay: PDE4B2 expression (RT-PCR) in BEAS-2B cells; type: cell-based, human; conditions: for NTHi-induced PDE4B2 expression (synergy with NTHi): cAMP elevator / PKA or Epac activator with NTHi
Protocol: (§1) Bacterial strains and culture condition. Clinical isolates of NTHi strain 12 were used in this study (Ishinaga et al., EMBO J., 26(4):1150-1162, 2007). Bacteria were grown on chocolate agar plates at 37° C. in an atmosphere of 5% CO2 overnight and subsequently inoculated in brain heart infusion (BHI) broth supplemented with 3.5 μg/mL NAD and hemoglobin (BD Biosciences). After overnight incubation, the bacteria were subcultured into fresh broth and the log phase bacteria, monitored by measurement of optical density (OD) value, were washed and suspended in DMEM for in vitro cell experiments and in isotonic saline for in vivo animal experiments. For all in vitro experiments except the dose dependent experiment, NTHi was treated at multiplicity of infection (MOI) of 50.
(§2) Cell culture. All media described below were supplemented with 10% fetal bovine serum (Sigma-Aldrich). Human bronchial epithelial BEAS-2B cells were maintained in RPMI medium (Life Technologies) (ATCC® CRL-9609™). Human primary bronchial epithelial NHBE (Lonza) cells were maintained in bronchial epithelial growth media (BEGM) supplemented with BEGM SingleQuots (Jono et al., J. Biol. Chem. 277(47):45547-45557, 2002). BEAS-2B cells stably expressing human PDE4B2 (PDE4B2-stable cells) were obtained by plasmid transfection following Geneticin selection (300 μg/mL). Cells were cultured in a humidified atmosphere of 5% CO2 at 37° C.
Plasmids, transfections and luciferase assay. The expression plasmids, constitutively active forms of IKKα (IKKα-CA, S176E/S180E) and IKKβ (IKKβ-CA, S177E/S181E) and a dominant negative form of IκBα (IκBα-DN, S32A/S36A) were previously described (Shuto et al., Proc. Natl. Acad. Sci. USA, 98(15):8774-8779, 2001; Ishinaga et al., supra). Luciferase reporter construct of NF-κB (pGL4.32) was purchased from Promega. Human PDE4B2, p65 (RelA) and PKA-Cβ1/2 cDNA sequences were generated and inserted into the BamHI and HindIII sites of the pcDNA3.1/mycHis(−) vector. Mutant p65 and PDE4B2-D392A were generated by using PRIMESTAR® Max (Takara). Empty vector was used as a control and was also added where necessary to ensure an equivalent amount of input DNA. All transient transfections were carried out in triplicate using TRANSIT-LT1® reagent (Minis) following the manufacturer's instruction.

[2] = system: p65; assay: p65 phosphorylation by Phos-tag PAGE in BEAS-2B cells; type: cell-based, human
Protocol: Phos-tag PAGE. Recombinant p65 proteins or nuclear extracts recovered without EDTA/EGTA were separated by SDS-PAGE, with 6% gels containing 50 μM Mn^2+-Phos-tag Acrylamide and transferred to PVDF membrane according to the manufacture's instructions (Kinoshita et al., Mol. Cell. Proteomics 5(4):749-757, 2006.

[3] = system: PDE4B; assay: PDE4B mRNA expression (Q-PCR) in BEAS-2B cells stimulated with NTHi; type: cell-based, human; conditions: BEAS-2B; ActD 5 ng/ml and Rof 0.1 μM 1 hour, then 1.5-hour NTHi
Protocol: as §1, §2

[4] = system: NTHi-induced inflammation; assay: NTHi-induced inflammation in mouse lung (proinflammatory mediator mRNA, H&E staining); type: in vivo; conditions: DEX 2 mg/kg i.p. and Rof 5 mg/kg i.p. 2 h before NTHi 5×10^7 CFU/lung
Protocol: Mice and animal experiments. For NTHi-induced inflammation in C57BL/6J mice (7 weeks old), anaesthetized mice were intratracheally inoculated with NTHi at a concentration of 5×10^7 CFU per mouse and saline was inoculated as control.
. We pre-treated BEAS-2B cells with Rof (1 μM), FSK (1 μM), Iso (0.1 μM) and DEX (10 nM) for 1 h followed by 1.5 h stimulation with NTHi, and PDE4B mRNA expression was analyzed by Q-PCR (FIGS. 7A and 7B). We also pre-treated BEAS-2B cells with Rof (0.1 μM) and DEX (6.5 nM) for 1 h followed by 1.5 h stimulation with NTHi, and PDE4B2 mRNA expression was analyzed by semi-quantitative RT-PCR (FIG. 7C). To assess protein expression, BEAS-2B cells were pre-treated with Rof (0.1 μM) and DEX (100 nM) for 1 h followed by a 5 h stimulation with NTHi, and PDE4B protein expression was analyzed by immunoblot (FIG. 7D). Each target data were normalized with NTHi treated. Data are mean±SD (n=3); *p<0.05 vs NTHi; ^†p<0.05 vs Rof+NTHi. […] After 5 h, mRNA expression in lung tissues were analyzed by Q-PCR for assessing the expression of PDE4B or various proinflammatory mediators and lung tissues were stained against PDE4B (Magnification ×200, Scale bar, 100 μm) (FIG. 7F) and assessed for inflammation using H&E staining (FIG. 7H).

[5] = system: PDE4B; assay: PDE4B mRNA expression in lung tissues of NTHi-inoculated mice; conditions: mouse lung; DEX 2 mg/kg i.p. and Rof 5 mg/kg i.p. 2 h before NTHi; after 5 h
[6] = BEAS-2B cells, inhibitor treatment

## O=P1(O)OC[C@H]2O[C@@H](n3cnc4c(Nc5ccccc5)ncnc43)[C@@H](O)C2O1 (stereo partly shown) [6-Phe-cAMP, N^6-Phenyl-cAMP]
[1]; BEAS-2B cells
  NTHi-induced PDE4B2 expression (synergy with NTHi): synergistically enhanced
[1]; in IKKβ-CA- but not IKKα-CA-transfected BEAS-2B cells
  PDE4B2 expression: synergistically enhanced
[2]; roflumilast as co-treatment with NTHi
  phosphorylation of p65 (induction): induced this phosphorylation

## CO[C@@H]1[C@@H]2OP(=O)(O)OC[C@H]2O[C@H]1n1c(Sc2ccc(Cl)cc2)nc2c(N)ncnc21 [8-pCPT-2′-O-Me-cAMP]
[1]; BEAS-2B cells
  NTHi-induced PDE4B2 expression (synergy with NTHi): did not markedly synergize

## Cc1c2oc3c(C)ccc(C(=O)N[C@@H]4C(=O)N[C@H](C(C)C)C(=O)N5CCC[C@H]5C(=O)N(C)CC(=O)N(C)[C@@H](C(C)C)C(=O)O[C@@H]4C)c3nc-2c(C(=O)N[C@@H]2C(=O)N[C@H](C(C)C)C(=O)N3CCC[C@H]3C(=O)N(C)CC(=O)N(C)[C@@H](C(C)C)C(=O)O[C@@H]2C)c(N)c1=O [ActD, actinomycin D] (I: T[dV]P[Sar][NMeV] / II: T[dV]P[Sar][NMeV]; ester I:1-I:C, II:1-II:C; linker I:N-II:N via Actinocin(9to1))
[3]
  PDE4B induction by NTHi and roflumilast: completely abrogated

## C[C@@H]1C[C@H]2[C@@H]3CCC4=CC(=O)C=C[C@]4(C)[C@@]3(F)[C@@H](O)C[C@]2(C)[C@@]1(O)C(=O)CO [Dexamethasone, dexamethasone]
[4]
  efficacy of Rof in suppressing NTHi-induced inflammation: improves the efficacy of Rof
[5]
  PDE4B induction by NTHi and Rof: suppresses

## O=S(=O)(NCCNC/C=C/c1ccc(Br)cc1)c1cccc2cnccc12 [H89]
[2]
  phosphorylation of p65 induced by overexpression of PKA-Cβ1 (inhibition): inhibited

## NC(=O)Nc1sc(-c2ccc(F)cc2)cc1C(N)=O [IKKβ inhibitor]
[1]; [6]
  induction of PDE4B2 by roflumilast alone: did not affect
  synergistic induction of PDE4B2 by NTHi and roflumilast: significantly inhibited

## COc1cccc(-c2cc(=O)c3ccccc3o2)c1N [PD98059]
[2]
  phosphorylation of p65 induced by overexpression of PKA-Cβ1 (inhibition): not

## Nc1ncnc2c1nc(Sc1ccc(Cl)cc1)n2[C@@H]1O[C@@H]2COP(O)(=S)O[C@H]2[C@H]1O (stereo partly shown) [Rp-8-CPT-cAMPS]
[2]
  phosphorylation of p65 induced by co-treatment of roflumilast with NTHi (inhibition): inhibited

## C[S+]([O-])c1ccc(-c2nc(-c3ccncc3)c(-c3ccc(F)cc3)[nH]2)cc1 (stereo not shown) [SB203580]
[2]
  phosphorylation of p65 induced by overexpression of PKA-Cβ1 (inhibition): not

From patent publication US11045456B2, “Compositions and methods for treating COPD and other inflammatory conditions” (Georgia State University Research Foundation, Inc., priority 2015, dated 2021)
